Test results from US12679807B2 (MERCK SHARP & DOHME LLC, priority 2020, dated 2026).

Target: T1, GCS enzyme contained within Golgi preparations isolated from human A375 malignant melanoma skin cells (Homo sapiens, UniProt Q16739)
T1 construct: endogenous levels of GCS enzyme contained within Golgi preparations isolated from human A375 malignant melanoma skin cells; endogenous in cells; host or cells: A375 human malignant melanoma cells (crude Golgi preparation)
T1 sequence (Q16739 1-394): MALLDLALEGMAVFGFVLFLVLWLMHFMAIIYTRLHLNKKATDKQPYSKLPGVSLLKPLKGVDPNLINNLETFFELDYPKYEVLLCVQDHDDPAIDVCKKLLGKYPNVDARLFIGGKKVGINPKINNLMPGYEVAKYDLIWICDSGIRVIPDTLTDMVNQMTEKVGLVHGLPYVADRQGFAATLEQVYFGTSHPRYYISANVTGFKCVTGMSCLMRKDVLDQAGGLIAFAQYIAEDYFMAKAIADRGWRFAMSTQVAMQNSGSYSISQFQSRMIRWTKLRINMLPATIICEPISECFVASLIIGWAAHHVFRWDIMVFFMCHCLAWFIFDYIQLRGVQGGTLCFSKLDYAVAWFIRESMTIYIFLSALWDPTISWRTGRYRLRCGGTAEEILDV
Test: UDP-Glo glucosylceramide synthase biochemical assay
Conditions: crude Golgi preparation from A375 cells; C6 ceramide and UDP-glucose substrates; 20 h incubation at room temperature; UDP detected by luminescence
Excerpt: UDP-Glo™ Glucosylceramide Synthase Biochemical Assay
A UDP-Glo™ glucosylceramide synthase biochemical assay was utilized to evaluate the effect of test compounds on the activity of endogenous levels of GCS enzyme contained within Golgi preparations isolated from human A375 malignant melanoma skin cells. The UDP-Glo™ glucosylceramide synthase assay uses UDP-Glucose as a nucleotide-glycosyl donor and ceramide as substrate acceptor molecules. In the reaction, glucosylceramide synthase (GCS) transfers glucose from UDP-Glucose to ceramide. Glucosylceramide and UDP are released as products.
Using Promega's UDP-Glo™ Glycosyltransferase assay kit (Promega Corporation, Madison, WI, USA (Promega)), GCS activity was indirectly measured by detecting the amount of UDP produced. An aliquot of GCS enzyme (1.5 μg crude golgi preparation, total protein) and titrated test compound were aliquoted to each well and incubated for 30 minutes at room temperature. […] An equivalent volume of substrate mixture was then added to each well. Following a 20 h incubation at room temperature to allow for GCS turnover of substrate, an equal volume of UDP detection reagent (Promega) was added to each well and incubated for an additional 75 minutes at room temperature to simultaneously convert the accumulated UDP product into ATP and generate light in a luciferase reaction. The generated light was detected using a luminometer. […] luminescence values (RLUs) were normalized to mean “min” and “max” effects, as determined on each plate. […] Values for % Emax and EC50 were determined by best-fitting the normalized data to a curve in Activity Base along a four-parameter logistic nonlinear regression (4PL) model (based on the Levenberg-Marquardt algorithm and defined by the equation below):
[formula] where: n is 4 PMin (bottom of the curve); m is 4 PMax (top of the curve); i is IP (inflection point of curve); and p is slope. See Levenberg, K., “A Method for the Solution of Certain Problems in Least Squares”, Quart. Appl. Math. […] Math.

EC50 | SMILES
290 nM | CC(C)(O)C(C1CC1)N1Cc2cccc(/C=C/c3ccc(F)cc3F)c2C1=O (racemic) [Compound 4, (R and S)-(E)-2-(1-cyclopropyl-2-hydroxy-2-methylpropyl)-7-(2,4-difluorostyryl)isoindolin-1-one]
45 nM | Cc1ccc(-c2ccc(-c3cccc4c3C(=O)N(C(C3CC3)C(C)(C)O)C4)cc2)nn1 (racemic) [Compound 18, (R and S)-2-(1-cyclopropyl-2-hydroxy-2-methylpropyl)-7-(4-(6-methylpyridazin-3-yl)phenyl)isoindolin-1-one]
28 nM | COc1ccc(-c2cccc3c2C(=O)N(C(C2CC2)C(C)(C)O)C3)cc1OC (racemic) [Compound 19, (R and S)-2-(1-cyclopropyl-2-hydroxy-2-methylpropyl)-7-(3,4-dimethoxyphenyl) isoindolin-1-one]
67 nM | Cc1cc(-c2cccc3c2C(=O)N(C(C2CC2)C(C)(C)O)C3)cc(C)n1 (racemic) [Compound 20, (R and S)-2-(1-cyclopropyl-2-hydroxy-2-methylpropyl)-7-(2,6-dimethylpyridin-4-yl)isoindolin-1-one]
380 nM | O=C1c2c(cccc2-c2ccccc2OCC(F)(F)F)CN1CCC1CCC(O)C1 (racemic) [Compound 47, (cis and trans racemic)-2-(2-(3-hydroxycyclopentyl)ethyl)-7-(2-(2,2,2-trifluoroethoxy)phenyl) isoindolin-1-one]
160 nM | O=C1c2c(cccc2-c2ccc(F)cc2)CN1CCC1CN2CCC1CC2 (racemic) [Compound 52, (R and S)-7-(4-fluorophenyl)-2-(2-(quinuclidin-3-yl)ethyl)isoindolin-1-one]
48 nM | Cc1nn(C)c(C)c1-c1cccc2c1C(=O)N(CCC1CN3CCC1CC3)C2 (racemic) [Compound 53, (R and S)-2-(2-(quinuclidin-3-yl)ethyl)-7-(1,3,5-trimethyl-1H-pyrazol-4-yl)isoindolin-1-one]
97 nM | Cc1cc(-c2cccc3c2C(=O)N(CCC2CN4CCC2CC4)C3)ccn1 (racemic) [Compound 54, (R and S)-7-(2-methylpyridin-4-yl)-2-(2-(quinuclidin-3-yl)ethyl)isoindolin-1-one]
160 nM | CCOc1ccccc1C(=O)Nc1cccc2c1C(=O)N(C(CO)C1CCC1)C2 (racemic) [Compound 101, (R and S)-N-(2-(1-cyclobutyl-2-hydroxyethyl)-3-oxoisoindolin-4-yl)-2-ethoxybenzamide]
550 nM | CCOc1ccccc1C(=O)Nc1cccc2c1C(=O)N(C1CN3CCC1CC3)C2 (racemic) [Compound 107, (R and S)-2-Ethoxy-N-(3-oxo-2-(quinuclidin-3-yl)isoindolin-4-yl)benzamide]
0.91 nM | CC(C)(O)C(C1CC1)N1Cc2ccc(F)c(-c3ccccc3OCC(F)(F)F)c2C1=O (single isomer, unassigned) [Compound 21, 2-((R or S)-1-cyclopropyl-2-hydroxy-2-methylpropyl)-6-fluoro-7-(2-(2,2,2-trifluoroethoxy)phenyl) isoindolin-1-one]
0.41 nM | CC(C)(O)C(C1CC1)N1Cc2cc(F)cc(-c3ccccc3OCC(F)(F)F)c2C1=O (single isomer, unassigned) [Compound 23, (R or S)-2-(1-cyclopropyl-2-hydroxy-2-methylpropyl)-5-fluoro-7-(2-(2,2,2-trifluoroethoxy)phenyl) isoindolin-1-one]
540 nM | Cc1nnc(-c2ccc(-c3nccc4c3C(=O)N(C(C3CC3)C(C)(C)O)C4)cc2)o1 (single isomer, unassigned) [Compound 28, (R or S)-2-(1-cyclopropyl-2-hydroxy-2-methylpropyl)-4-(4-(5-methyl-1,3,4-oxadiazol-2-yl)phenyl)-1,2-dihydro-3H-pyrrolo[3,4-c]pyridin-3-one]
95 nM | COc1cc(C#N)cc(-c2nccc3c2C(=O)N(C(C2CC2)C(C)(C)O)C3)c1 (single isomer, unassigned) [Compound 30, (R or S)-3-(2-(1-cyclopropyl-2-hydroxy-2-methylpropyl)-3-oxo-2,3-dihydro-1H-pyrrolo[3,4-c]pyridin-4-yl)-5-methoxybenzonitrile]
180 nM | Cc1nnc(-c2ccc(-c3cncc4c3C(=O)N(C(C3CC3)C(C)(C)O)C4)cc2)o1 (single isomer, unassigned) [Compound 31, (R or S)-2-(1-cyclopropyl-2-hydroxy-2-methylpropyl)-7-(4-(5-methyl-1,3,4-oxadiazol-2-yl)phenyl)-2,3-dihydro-1H-pyrrolo[3,4-c]pyridin-1-one]
350 nM | Cc1nnc(-c2ccc(-c3ccnc4c3C(=O)N(C(C3CC3)C(C)(C)O)C4)cc2)o1 (single isomer, unassigned) [Compound 33, (R or S)-6-(1-cyclopropyl-2-hydroxy-2-methylpropyl)-4-(4-(5-methyl-1,3,4-oxadiazol-2-yl)phenyl)-6,7-dihydro-5H-pyrrolo[3,4-b]pyridin-5-one]
0.8 nM | Cc1nnc(-c2ccc(-c3cc(Cl)cc4c3C(=O)N(C(C3CC3)C(C)(C)O)C4)cc2)o1 (single isomer, unassigned) [Compound 39, (R or S)-5-chloro-2-(1-cyclopropyl-2-hydroxy-2-methylpropyl)-7-(4-(5-methyl-1,3,4-oxadiazol-2-yl)phenyl)isoindolin-1-one]
24 nM | Cn1cc(-c2ccc(-c3cccc4c3C(=O)N(C(C(C)(C)O)C(F)(F)F)C4)cc2)cn1 (single isomer, unassigned) [Compound 43, (R or S)-7-(4-(1-methyl-1H-pyrazol-4-yl)phenyl)-2-(1,1,1-trifluoro-3-hydroxy-3-methylbutan-2-yl)isoindolin-1-one]
5.9 nM | Cc1nnc(-c2ccc(-c3cccc4c3C(=O)N(C(C3CC3)C3(O)COC3)C4)cc2)o1 (single isomer, unassigned) [Compound 51, (R or S)-2-(cyclopropyl(3-hydroxyoxetan-3-yl)methyl)-7-(4-(5-methyl-1,3,4-oxadiazol-2-yl)phenyl)isoindolin-1-one]
53 nM | Cc1nnc(-c2ccc(-c3cccc4c3C(=O)N([C@H](C3CC3)C(C)(C)O)C4C)cc2)o1 (single isomer, unassigned) [Compound 62, (R or S)-2-((R)-1-Cyclopropyl-2-hydroxy-2-methylpropyl)-3-methyl-7-(4-(5-methyl-1,3,4-oxadiazol-2-yl)phenyl)isoindolin-1-one]
0.21 nM | Cc1ccc(F)c(C(=O)Nc2cccc3c2C(=O)N(C(C2CC2)C(C)(C)O)C3)c1Cl (single isomer, unassigned) [Compound 110, (R or S)-2-chloro-N-(2-(1-cyclopropyl-2-hydroxy-2-methylpropyl)-3-oxoisoindolin-4-yl)-6-fluoro-3-methylbenzamide]
0.26 nM | Cc1ccc(Cl)c(C(=O)Nc2cccc3c2C(=O)N(C(C2CC2)C(C)(C)O)C3)c1F (single isomer, unassigned) [Compound 111, (R or S)-6-chloro-N-(2-(1-cyclopropyl-2-hydroxy-2-methylpropyl)-3-oxoisoindolin-4-yl)-2-fluoro-3-methylbenzamide]
0.41 nM | COc1ccc(F)c(F)c1C(=O)Nc1cccc2c1C(=O)N(C(C1CC1)C(C)(C)O)C2 (single isomer, unassigned) [Compound 112, (R or S)-N-(2-(1-cyclopropyl-2-hydroxy-2-methylpropyl)-3-oxoisoindolin-4-yl)-2,3-difluoro-6-methoxybenzamide]

SMILES | EC50
CCOc1ccccc1C(=O)Nc1cccc2c1C(=O)N(CC1CC3CCN1CC3)C2 (racemic) [Compound 108, 2-Ethoxy-N-(3-oxo-2-(quinuclidin-2-ylmethyl)isoindolin-4-yl)benzamide] | 270 nM
CN(C(=O)OC1CN2CCC1CC2)c1cccc2c1C(=O)N(c1ccc(F)cc1)C2 (racemic) [Compound 170, (R and S)-Quinuclidin-3-yl(2-(4-fluorophenyl)-3-oxoisoindolin-4-yl)(methyl)carbamate] | 130 nM
